Bounds are passed on as bounds.

As for `COc1ccc(Cl)cc1C(=O)NCCc1ccc(-c2ccc(F)cc2)c(S(N)(=O)=O)c1`, the melting point (as a rule, the temperature of the solid-liquid transition) turned out to be 195 °C.

In turn, `CN(C(=O)Nc1ccc2ccccc2c1)c1cccc(-c2ccc(CC3SC(=O)NC3=O)cc2)c1` (centres undefined) registered a melting point of 196 °C.

The compound `Nc1ccc2c3c(cccc13)C(=O)N(O)C2=O` displayed a melting point greater than 360 °C.

Compound `CN(CCNC(=C[N+](=O)[O-])SCc1ccccc1)Cc1ccc(Cl)nc1` came in with a melting point of 119 to 123 °C.

The compound `CN(C)C(=O)c1c2ccc(Cl)cc2c(-c2ccccc2)n1C` gave a melting point of 86 to 88 °C.

Take `CCOC(=O)C1=COc2ccccc2O1`: the melting point stood at 42 °C.

Regarding `O=C(NC(=O)c1ccccn1)NC1CN2CCC1CC2` (centres undefined), the melting point lay within 202 to 203 °C.

`O=c1[nH]ncc2[nH]c(-c3ccc(OC(F)F)c(OC4CC4)c3)c(CO)c12` registered a melting point of 190 to 191 °C.

As to `S=C(Nc1ccc(Cl)cc1)Nc1ncccc1OCc1ccccc1`, the melting point fell in the range of 140 to 143 °C.

Regarding `CCOC(=O)C(NC(C)=O)C(O)c1ccc(C=Cc2csc3ccccc23)s1` (centres undefined), the melting point lay in the range of 157 to 159 °C.

In turn, `OCC(Oc1ccc(-c2ccccc2)cc1)c1ccccc1` (centres undefined) returned a melting point of 126 to 127 °C.

In the case of `CCNC(=O)c1c(Cl)ccc(N(C)C)c1[Si](C)(C)C`, the melting point lay within 179 to 180 °C.

Compound `Cc1sc(C)c(Cc2nc3c(F)c(F)cc(F)c3s2)c1CC#N` came in with a melting point of 145 to 146 °C.

`O=C1CCCN1C(=O)c1ccc(O)cc1` yielded a melting point of 179 to 182 °C.

`Cc1ccc(S(=O)(=O)OCC2Cc3cc(C(F)(F)F)cc(Br)c3O2)cc1` (centres undefined) came in with a melting point of 95 to 97 °C.

As to `Cc1cc2c(cc1C(=O)Cc1ccccc1)CCC2`, the melting point lay within 126 to 127 °C.

The compound `COC(=O)CCC(=O)Nc1ccc(C(=O)NNC(=O)OC(C)(C)C)cc1` had a melting point of 111 to 113 °C.

Regarding `CC(C)c1ccc(S(=O)(=O)c2ccccc2)cc1S(=O)(=O)NC1CCN(C(=O)c2ccc(C(C)(C)C)cc2)CC1`, the melting point lay in the range of 150 to 152 °C.

Take `CC[C@H](C)[C@H](NC(=O)/C=C1/c2ccccc2C(=S)N[C@H]1[C@@H](C)CC)C(=O)N[C@H](C(=O)OC)[C@@H](C)CC`: the melting point fell in the range of 178 to 181 °C.

`N#CC(Cc1c(Cl)cccc1Cl)C(=O)O` (centres undefined) yielded a melting point of 106 to 108 °C.

For the compound `CCCCCCCCCCCCc1ccc(NC2CCCc3ccccc32)cc1` (centres undefined), the melting point was found to be 34 °C.

The compound `Cc1ccncc1NC(=O)OC(C)(C)C` displayed a melting point of 91 to 93 °C.

Regarding `N#Cc1c(N2CC[C@@H](C3(N)CC3)C2)ccc2c(=O)c(C(=O)O)cn([C@@H]3C[C@@H]3F)c12`, the melting point lay within 138 to 140 °C.

As to `Cc1ccc(-c2c(-c3ccc(S(C)(=O)=O)cc3)cnn(-c3ccc(F)cc3)c2=O)cc1`, the melting point was 242 to 244 °C.

As for `CCCCCCCCC(Cc1cccnc1)(C(=O)NO)S(=O)(=O)c1ccc(OC)cc1` (centres undefined), the melting point came to 62 °C.

In the case of `CC(C)CNC1=NS(=O)(=O)c2sc(Cl)cc2N1`, the melting point was 262 to 264 °C.

In the case of `CCCCn1c(=O)[nH]c2ccc(OC)c(OC)c2c1=N`, the melting point is 165 to 168 °C.

Consider `CC1(CCC(=O)O)CCCc2c1[nH]c1ccccc21` (centres undefined), for which the melting point fell in the range of 204 to 206 °C.

For the compound `CN1CCC(OC2c3ccccc3CCn3cc(-c4ccccc4)nc32)CC1` (centres undefined), the melting point was 113 °C.

As for `CC(Cl)Cn1cc(-c2ccccc2)c2ccccc2c1=O` (centres undefined), the melting point came out at 141 °C.

Compound `COc1cc(C#N)ccc1Cc1cn(C)c2ccc([N+](=O)[O-])cc12` returned a melting point of 200 to 201 °C.

`CCCc1cc2nn(Cc3ccc(NC(=O)c4ccccc4S(=O)(=O)O)cc3)c(=O)n2c(C)n1` yielded a melting point of 283 to 286 °C.

Consider `OCCOCCOCCN1CCC(=C2c3ccccc3CC(O)c3sccc32)CC1` (centres undefined), for which the melting point was in the range of 110 to 113 °C.

For `CC(=O)Oc1c(C)c(C)c2c(c1C)C(=O)CC(C)(COc1ccc(N)cc1)O2` (centres undefined), the melting point was 177 to 178 °C.

The values are drawn from a melting point compilation (Tetko et al.; mined from patent text by program, amines drawn as free bases though some values may be those of a salt).
